According to BindingDB's records for doi:10.1016/j.ejmech.2016.02.023 (Rhône-Poulenc Rorer, 2016):
pIC50: −log10 of the molar value.

Assay: Antagonist activity at CRTH2 receptor in human eosinophils by ESC assay

Structure (SMILES) | pIC50
Cc1c(CC(=O)O)c2ccncn2c1Cc1ccccc1S(=O)(=O)c1ccccc1 | 7.92
COc1ccc(S(=O)(=O)c2ccc(F)cc2)c(Cc2c(C)c(CC(=O)O)c3ccncn23)c1 | 8.22
